In US20050239656A1, “Pyridine compounds or salts thereof and herbicides containing the same” (priority 2002, published 2005):

Legend:
crabgrass [1] = experiment: Test Example 1: foliage treatment, upland pot test; assay type: in vivo, Digitaria sanguinalis L.; details: active ingredient 500 g/ha, observed 18th to 23rd day, 0 = non-treated, 100 = complete kill
Source text: (§1) Upland field soil was put into a 1/170,000 ha pot, and seed of various plants were sown. Then, when the plants reached predetermined leaf stages ((1) barnyardgrass: 1.3 to 2.8 leaf stages, (2) crabgrass: 1.0 to 2.8 leaf stages, (3) green foxtail: 1.3 to 2.6 leaf stages, (4) redroot pigweed: 0.1 to 1.2 leaf stages, (5) prickly sida: 0.1 to 1.2 leaf stages, (6) velvetleaf: 0.1 to 1.2 leaf stages, (7) tall morningglory: 0.1 to 1.5 leaf stages, (8) rice: 1.2 to 2.6 leaf stages, (9) wheat: 1.3 to 2.4 leaf stages, (10) corn, 2.1 to 3.2 leaf stages, (11) soybean: 0.1 to 0.4 leaf stage), a wettable powder or emulsifiable concentrate having the compound of the present invention formulated in accordance with a usual formulation method, was weighed so that the active ingredient would be a predetermined amount, and diluted with water in an amount of 500 L/ha. To the diluted solution, 0.1% (v/v) of agricultural spreader was added. The herbicide thus adjusted was applied by a small size sprayer for foliage treatment. On the 18th to 23rd days after the application of the herbicide, the growth of the respective plants was visually observed, and the herbicidal effects were evaluated by the growth controlling degrees (%) ranging from 0 (equivalent to the non-treated plot) to 100 (complete kill), whereby the results shown in Table 3, were obtained.

rice [2] = experiment: Test Example 1: foliage treatment, upland pot test; assay type: in vivo, Oryza sativa L.; details: crop, active ingredient 500 g/ha, observed 18th to 23rd day, 0 = non-treated, 100 = complete kill
Source text: as §1

corn [3] = experiment: Test Example 1: foliage treatment, upland pot test; assay type: in vivo, Zea mays L.; details: crop, active ingredient 500 g/ha, observed 18th to 23rd day, 0 = non-treated, 100 = complete kill
Source text: as §1

barnyardgrass [4] = experiment: Test Example 1: foliage treatment, upland pot test; assay type: in vivo, Echinochloa crus-galli L.; details: active ingredient 500 g/ha, observed 18th to 23rd day, 0 = non-treated, 100 = complete kill
Source text: as §1

rice (var. Nihonbare) = experiment: Test Example 3: paddy pot test, transplanted rice; assay type: in vivo, Oryza sativa L.; details: applied 4th day after transplantation, visually observed 21st day after application, 0 = non-treated, 100 = complete kill
How it was run: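 Rice (var. Nihonbare) at 2 leaf stage transplanted 3 cm deep into puddled paddy soil under 3–4 cm flooding; on day 4 after transplanting, diluted wettable powder or emulsifiable concentrate applied by pipette under submerged conditions at a set active-ingredient dose. Growth scored visually 21 days after application, 0 (untreated) to 100 (complete kill) %.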

crabgrass [5] = experiment: Test Example 2: soil surface treatment, upland pot test; assay type: in vivo, Digitaria sanguinalis L.; details: active ingredient 500 g/ha, observed 20th to 28th day
How it was run: (§2)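 Readout was visual percent growth control (0 matching untreated, 100 complete kill) at days 20–28. Compound, as emulsifiable concentrate or wettable powder at a preset active-ingredient rate in 1,500 L/ha water, was sprayed onto sown upland soil one day after sowing.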

soybean [6] = experiment: Test Example 1: foliage treatment, upland pot test; assay type: in vivo, Glycine max Merr.; details: crop, active ingredient 500 g/ha, observed 18th to 23rd day, 0 = non-treated, 100 = complete kill
Source text: as §1

prickly sida [7] = experiment: Test Example 1: foliage treatment, upland pot test; assay type: in vivo, Sida spinosa L.; details: active ingredient 500 g/ha, observed 18th to 23rd day, 0 = non-treated, 100 = complete kill
Source text: as §1

japanese bulrush = experiment: Test Example 3: paddy pot test, application under submerged conditions; assay type: in vivo, Scirpus juncoides; details: submerged application at 0.5 leaf stage, visually observed 14 days after application, 0 = non-treated, 100 = complete kill
How it was run: (§3)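 Barnyardgrass and japanese bulrush sown in flooded paddy soil in greenhouse pots, japanese ribbon wapato tubers planted 1–2 days later; water depth kept at 3–4 cm. Diluted wettable powder or emulsifiable concentrate applied into water at 0.5-leaf or primary-leaf stage at set active-ingredient doses. Growth control scored visually at 14 days, 0 (untreated) to 100% (complete kill).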

green foxtail [8] = experiment: Test Example 2: soil surface treatment, upland pot test; assay type: in vivo, Setaria viridis L.; details: active ingredient 500 g/ha, observed 20th to 28th day
How it was run: as §2

velvetleaf [9] = experiment: Test Example 1: foliage treatment, upland pot test; assay type: in vivo, Abutilon theophrasti MEDIC.; details: active ingredient 500 g/ha, observed 18th to 23rd day, 0 = non-treated, 100 = complete kill
Source text: as §1

green foxtail [10] = experiment: Test Example 1: foliage treatment, upland pot test; assay type: in vivo, Setaria viridis L.; details: active ingredient 500 g/ha, observed 18th to 23rd day, 0 = non-treated, 100 = complete kill
Source text: as §1

soybean [11] = experiment: Test Example 2: soil surface treatment, upland pot test; assay type: in vivo, Glycine max Merr.; details: active ingredient 500 g/ha, observed 20th to 28th day
How it was run: as §2

redroot pigweed [12] = experiment: as above; assay type: in vivo, Amaranthus retroflexus L.; details: active ingredient 500 g/ha, observed 20th to 28th day
How it was run: as §2

barnyardgrass [13] = experiment: Test Example 3: paddy pot test, application under submerged conditions; assay type: in vivo, Echinochloa crus-galli L.; details: submerged application at 0.5 leaf stage, visually observed 14 days after application, 0 = non-treated, 100 = complete kill
How it was run: as §3

rice [14] = experiment: Test Example 2: soil surface treatment, upland pot test; assay type: in vivo, Oryza sativa L.; details: active ingredient 500 g/ha, observed 20th to 28th day
How it was run: as §2

velvetleaf [15] = experiment: as above; assay type: in vivo, Abutilon theophrasti MEDIC.; details: active ingredient 500 g/ha, observed 20th to 28th day
How it was run: as §2

corn [16] = experiment: as above; assay type: in vivo, Zea mays L.; details: active ingredient 500 g/ha, observed 20th to 28th day
How it was run: as §2

japanese ribbon wapato = experiment: Test Example 3: paddy pot test, application under submerged conditions; assay type: in vivo, Sagittaria pygniaea; details: submerged application at primary leaf stage, visually observed 14 days after application, 0 = non-treated, 100 = complete kill
How it was run: as §3

prickly sida [17] = experiment: Test Example 2: soil surface treatment, upland pot test; assay type: in vivo, Sida spinosa L.; details: active ingredient 500 g/ha, observed 20th to 28th day
How it was run: as §2

barnyardgrass [18] = experiment: as above; assay type: in vivo, Echinochloa crus-galli L.; details: active ingredient 500 g/ha, observed 20th to 28th day
How it was run: as §2

redroot pigweed [19] = experiment: Test Example 1: foliage treatment, upland pot test; assay type: in vivo, Amaranthus retroflexus L.; details: active ingredient 500 g/ha, observed 18th to 23rd day, 0 = non-treated, 100 = complete kill
Source text: as §1

Structure (SMILES) | Growth controlling degree (%) Crabgrass (crabgrass [1]) | Growth controlling degree (%) Rice (rice [2]) | Growth controlling degree (%) Corn (corn [3]) | Growth controlling degree (%) Barnyardgrass (barnyardgrass [4]) | Growth controlling degree (%) Rice (rice (var. Nihonbare); active ingredient 250 g/ha) | Growth controlling degree (%) Crabgrass (crabgrass [5]) | Growth controlling degree (%) Soybean (soybean [6]) | Growth controlling degree (%) Prickly sida (prickly sida [7]) | Growth controlling degree (%) Japanese bulrush (japanese bulrush; active ingredient 250 g/ha) | Growth controlling degree (%) Green foxtail (green foxtail [8]) | Growth controlling degree (%) Velvetleaf (velvetleaf [9]) | Growth controlling degree (%) Green foxtail (green foxtail [10]) | Growth controlling degree (%) Soyabean (soybean [11]) | Growth controlling degree (%) Redroot pigweed (redroot pigweed [12]) | Growth controlling degree (%) Barnyardgrass (barnyardgrass [13]; active ingredient 250 g/ha) | Growth controlling degree (%) Rice (rice [14]) | Growth controlling degree (%) Velvetleaf (velvetleaf [15]) | Growth controlling degree (%) Corn (corn [16]) | Growth controlling degree (%) Japanese ribbon wapato (japanese ribbon wapato; active ingredient 250 g/ha) | Growth controlling degree (%) Barnyardgrass (barnyardgrass [18]) | other results
CC(C)C(c1cnccc1C(F)(F)F)N(C)C(=O)CC1CCCCC1 (stereo not shown) [I-164] | 60% | 50% | 50% | 60% | 10% | 98% | 30% | 80% | 98% | 85% | 85% | 60% | 20% | 70% | 100% | 60% | 40% | 20% | 0% | 70% | Growth controlling degree (%) Prickly sida (prickly sida [17]): 60%
CC(C)C(c1cnccc1C(F)(F)F)N(C)C(=O)Cc1ccccc1[N+](=O)[O-] (stereo not shown) [I-39] | 70% | 10% | 10% | 50% | 10% | 100% | 40% | 90% | 95% | 70% | – | 60% | 50% | 80% | 100% | 10% | 30% | 40% | 85% | 100% | Growth controlling degree (%) Redroot pigweed (redroot pigweed [19]): 80%; Growth controlling degree (%) Prickly sida (prickly sida [17]): 90%
CC(C)C(c1cnccc1Cl)N(C)C(=O)Cc1cccc(F)c1F (stereo not shown) [I-72] | 70% | – | 40% | 0% | – | 70% | 20% | 60% | – | 60% | 85% | 10% | 0% | – | – | 0% | 0% | 0% | – | 80% | Growth controlling degree (%) Rice (rice (var. Nihonbare); active ingredient 125 g/ha): 0%; Growth controlling degree (%) Japanese bulrush (japanese bulrush; active ingredient 125 g/ha): 70%; Growth controlling degree (%) Barnyardgrass (barnyardgrass [13]; active ingredient 125 g/ha): 90%; Growth controlling degree (%) Redroot pigweed (redroot pigweed [19]): 60%; Growth controlling degree (%) Japanese ribbon wapato (japanese ribbon wapato; active ingredient 125 g/ha): 50%
